In publication PMC8119466, “A screen of FDA-approved drugs identifies inhibitors of protein tyrosine phosphatase 4A3 (PTP4A3 or PRL-3)” (Scientific Reports, 2021):
Where a name gives a salt, the structure may show the parent alone.

Assays:
Type in all cases: biochemical
Conditions in all cases: FDA-approved drug screen
recombinant PRL-1 = molecular target: T1, recombinant PRL-1 (Homo sapiens, UniProt Q93096); assay: In vitro phosphatase assay (DiFMUP hydrolysis), PRL-1; also: test concentration or dose not given here
T1 construct: 6xHis (N, cleaved yes); made in house; host or cells: E. coli One Shot BL21 Star
T1 sequence (Q93096 1-173): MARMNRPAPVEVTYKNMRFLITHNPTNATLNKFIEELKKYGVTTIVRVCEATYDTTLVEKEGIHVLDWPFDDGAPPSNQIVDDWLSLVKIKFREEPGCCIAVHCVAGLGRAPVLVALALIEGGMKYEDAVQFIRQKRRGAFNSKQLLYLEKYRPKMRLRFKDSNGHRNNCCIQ

recombinant PRL-2 = molecular target: T2, recombinant PRL-2 (Homo sapiens, UniProt Q12974); assay: In vitro phosphatase assay (DiFMUP hydrolysis), PRL-2;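 also: PRL-2 activity read as DiFMUP hydrolysis after 20 min at room temperature with drug, enzyme first pre-reduced at 4 °C for 20 min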
T2 construct: 6xHis (N, cleaved yes); made in house; host or cells: E. coli One Shot BL21 Star
T2 sequence (Q12974 1-167): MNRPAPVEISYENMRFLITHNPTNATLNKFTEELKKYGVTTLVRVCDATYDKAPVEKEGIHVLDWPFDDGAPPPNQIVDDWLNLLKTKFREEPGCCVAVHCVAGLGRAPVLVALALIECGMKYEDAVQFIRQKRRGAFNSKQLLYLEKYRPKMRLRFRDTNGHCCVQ

recombinant PRL-3 = molecular target: T3, recombinant PRL-3 (Homo sapiens, UniProt O75365); assay: In vitro phosphatase assay (DiFMUP hydrolysis), PRL-3; also: test concentration or dose not given here
T3 construct: 6xHis (N, cleaved yes); made in house; host or cells: E. coli One Shot BL21 Star
T3 sequence (O75365 whole entry): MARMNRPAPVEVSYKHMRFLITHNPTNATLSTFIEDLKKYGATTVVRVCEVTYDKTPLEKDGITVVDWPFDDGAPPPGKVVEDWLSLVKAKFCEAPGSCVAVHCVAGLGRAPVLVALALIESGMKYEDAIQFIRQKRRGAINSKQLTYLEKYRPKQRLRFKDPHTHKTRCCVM

Row | SMILES | % Phosphatase Activity (compared to DMSO) PRL-1 (recombinant PRL-1; activity compared to DMSO) [%] | % Phosphatase Activity (compared to DMSO) PRL-2 (recombinant PRL-2; activity compared to DMSO) [%] | % Phosphatase Activity (compared to DMSO) PRL-3 (recombinant PRL-3; activity compared to DMSO) [%] | % Phosphatase Activity (compared to DMSO) PRL-1 (recombinant PRL-1; compared to DMSO) [%] | % Phosphatase Activity (compared to DMSO) PRL-2 (recombinant PRL-2; compared to DMSO) [%] | % Phosphatase Activity (compared to DMSO) PRL-3 (recombinant PRL-3; compared to DMSO) [%]
1 | CC[C@H]1OC(=O)C[C@@H](O)[C@H](C)[C@@H](O[C@@H]2O[C@H](C)[C@@H](O)[C@H](N(C)C)[C@H]2O)[C@@H](CCN2C[C@H](C)C[C@H](C)C2)C[C@@H](C)C(=O)/C=C/C(C)=C/[C@@H]1CO[C@@H]1O[C@H](C)[C@@H](O)[C@@H](OC)[C@H]1OC [Tilmicosin] | 89 | 88 | 71 |  |  | 
2 | COc1ccccc1N1CCN(CCCNc2cc(=O)n(C)c(=O)n2C)CC1.Cl [Urapidil HCl] | 98 | 97 | 92 |  |  | 
3 | CC/C(=C(\c1ccccc1)c1ccc(OCCN(C)C)cc1)c1ccccc1 [Tamoxifen Citrate] | 84 | 91 | 95 |  |  | 
4 | Nc1nc(Cl)nc2c1ncn2[C@@H]1O[C@H](CO)[C@@H](O)[C@@H]1F [Clofarabine] |  |  |  | 97 | 100 | 81
5 | CC(N)C12CC3CC(CC(C3)C1)C2 (stereo not drawn) [Rimantadine] |  |  |  | 91 | 106 | 80
6 | O=C(C1CCCCC1)N1CC(=O)N2CCc3ccccc3C2C1 (stereo not drawn) [Praziquantel] |  |  |  | 102 | 88 | 73
7 | Cc1nc(Nc2ncc(C(=O)Nc3c(C)cccc3Cl)s2)cc(N2CCN(CCO)CC2)n1 [Dasatinib Monohydrate] |  |  |  | 97 | 79 | 98
8 | CO[C@H]1/C=C/O[C@@]2(C)Oc3c(C)c(O)c4c(c3C2=O)C2=NC3(CCN(CC(C)C)CC3)NC2=C(NC(=O)/C(C)=C\C=C\[C@H](C)[C@H](O)[C@@H](C)[C@@H](O)[C@@H](C)[C@H](OC(C)=O)[C@@H]1C)C4=O [Rifabutin] |  |  |  | 61 | 63 | 72
9 | Cl.O=S(=O)(c1cccc2cnccc12)N1CCCNCC1 [Fasudil (HA-1077) HCl] |  |  |  | 102 | 95 | 82
10 | CC(C)c1nc(N(C)S(C)(=O)=O)nc(-c2ccc(F)cc2)c1/C=C/[C@@H](O)C[C@@H](O)CC(=O)O [Rosuvastatin Calcium] |  |  |  | 107 | 99 | 83
11 | CC(=O)NC(CCC(N)=O)C(=O)O (stereo not drawn) [Aceglutamide] |  |  |  | 107 | 96 | 87
12 | Cc1ccc(F)c(NC(=O)Nc2ccc(-c3cccc4[nH]nc(N)c34)cc2)c1 [Linifanib (ABT-869)] |  |  |  | 133 | 151 | 133
13 | NC[C@H]1O[C@H](O[C@H]2[C@H](O)[C@@H](O[C@H]3O[C@H](CO)[C@@H](O)[C@H](N)[C@H]3O)[C@H](N)C[C@@H]2N)[C@H](N)C[C@@H]1O [Tobramycin] | 99 | 97 | 91 |  |  | 
14 | CCOC(=O)CCC(=O)O[C@H]1[C@H](O[C@@H]2[C@@H](C)[C@H](O[C@H]3C[C@@](C)(OC)[C@@H](O)[C@H](C)O3)[C@@H](C)C(=O)O[C@H](CC)[C@@](C)(O)[C@H](O)[C@@H](C)C(=O)[C@H](C)C[C@@]2(C)O)O[C@H](C)C[C@@H]1N(C)C [Erythromycin Ethylsuccinate] |  |  |  | 85 | 82 | 71
15 | CC(C)[C@H]1C(=O)N[C@@H](CCCN=C(N)N)C(=O)NCC(=O)N[C@@H](CC(=O)O)C(=O)N[C@H](Cc2ccccc2)C(=O)N1C [Cilengitide] |  |  |  | 100 | 91 | 96
16 | CC(C)(S)[C@@H](N)C(=O)O [Penicillamine] |  |  |  | 85 | 100 | 97
17 | CC(=O)NC1CCSC1=O (stereo not drawn) [Citiolone] |  |  |  | 114 | 106 | 93
18 | CC#CCn1c(N2CCC[C@@H](N)C2)nc2c1c(=O)n(Cc1nc(C)c3ccccc3n1)c(=O)n2C [Linagliptin] |  |  |  | 115 | 131 | 100
19 | CC(=O)O[C@H]1Cc2ccccc2N(C(N)=O)c2ccccc21 [Eslicarbazepine Acetate] |  |  |  | 94 | 117 | 75
